Data: patent publication US20030114519A1, “Pharmaceutical combination of bicalutamide and anastrozole for providing an anti-androgenic effect and aromatase inhibition” (priority 2002, published 2003)

Assays:
[1] = test system: testosterone, LH, oestradiol, FSH levels; details: cited from earlier work
[2] = test system: free testosterone concentration; details: after 24 weeks of daily 150 mg CASODEX alone; prostate cancer; cited from earlier work
total testosterone = details: bicalutamide single agent therapy, humans; cited from earlier work

Method for free testosterone levels: The following clinical trial was performed to determine the effect of the administration of CASODEX™ together with ARIMIDEX™ on free testosterone levels in healthy male volunteers over a 6 week period.
Dosage: The CASODEX™ was administered daily at a dose of 150 mg and the ARIMIDEX™ was administered daily at a dose of 1 mg. All treatments were in tablet form and taken once daily. Daily treatment with CASODEX™ was for 6 weeks, and with ARIMIDEX™ for the final 2 weeks of this period. The treatment periods were selected as the minimum time to attain steady-state plasma concentrations for the drugs.
Key Assessment: Free testosterone concentrations were measured during the course of the trial.

| Structure (SMILES) | Effect on mean serum testosterone, oestradiol, LH levels, LH pulse frequency and amplitude ([1]; 13 normal men, 6 week period (Spijkstra et al)) | Effect on basal serum levels of LH, oestradiol and testosterone ([1]; administration to men (Lewis-Jones et al)) | Effect on testosterone and LH ([1]; intake in adult men (Comhaire et al)) | Effect on basal LH, FSH and testosterone levels ([1]; three months' treatment, normogonadotrophic oligozoospermic men (van Bergeijk et al)) | Increase in mean free testosterone concentration [2] [%] | Change in basal level of total testosterone (total testosterone) | Increase in mean free testosterone concentration (free testosterone levels; CASODEX alone, end of the treatment period (4 weeks)) [%] | Free testosterone, ratio to Day 1 (free testosterone levels; Day 29, CASODEX 150 mg daily alone) | Free testosterone concentration, gmean (free testosterone levels; Day 29, CASODEX 150 mg daily alone (up to week 4), n=7) [nmol/1] |
| --- | --- | --- | --- | --- | --- | --- | --- | --- | --- |
| CC/C(=C(\c1ccccc1)c1ccc(OCCN(C)C)cc1)c1ccccc1 [tamoxifen] | An increase | elevates the basal serum levels | increase testosterone and LH | stimulated basal LH, FSH and testosterone levels | – | – | – | – | – |
| CC(O)(CS(=O)(=O)c1ccc(F)cc1)C(=O)Nc1ccc(C#N)c(C(F)(F)F)c1 (stereo not drawn) [CASODEX, 4′-cyano-α′,α′, α′-trifluoro-3-(4-fluorophenylsulphonyl)-2-hydroxy-2-methylpropiono-m-toluidide] | – | – | – | – | 57 | approximate doubling | 58 | 1.58 | 0.076 |
